Columns and labels:
[1] = test system: patients with constipation predominant and alternating forms of IBS; conditions: literature abstract; cited from earlier work
[2] = test system: women with IBS-C (Rome II criteria) and IBS-M (modification of Rome II); assay: Randomized, double-blind, placebo-controlled, multicenter study, 4 weeks treatment, in patients with IBS-C and IBS-M; assay type: in vivo; conditions: for days/week with no BMs (mean) / stool consistency score using a 7-patient scale (mean) / days/wk with straining (mean) / weekly BM frequency (mean): p<0.05
Experimental: Evaluation of the effect of tegaserod (T) on multiple symptoms in women with mixed/alternating bowel habits.
METHODS: A randomized, double-blind, placebo-controlled, multicenter study was performed in patients with IBS-C (based on Rome II criteria) and IBS-M (modification of Rome II). The primary efficacy variable was the patients' assessment of satisfactory relief over 4 weeks treatment with T 6 mg bid or Placebo (P). The proportion of patients reporting satisfactory relief of 4 weeks (75% rule) and improvement during each of the 4 weeks in individual IBS symptoms were also assessed. Treatments were compared using a generalized linear model with logit link.
RESULTS: 661 women were randomized (IBS-C 337; IBS-M 324). Baseline symptom assessment clearly distinguished between the IBS-C and the IBS-M cohorts. Statistically significant differences were found between the two cohorts in bowel movement (BM) frequency, stool consistency and straining. T provided statistically significant improvement in satisfactory relief of IBS symptoms over a 4-week treatment (odds ratio 1.75; 95% CI: 1.35, 2.25; p-value<0.001) for the IBS-C and IBS-M cohorts. […] Adverse event discontinuations were low (IBS-C: T 1.2% v P 2.4% and IBS-M: T 2.5% v P 3.6%). Most frequent AEs (with discontinuations) were diarrhea (1.1%), headache (0.6%) and nausea (0.3%). No clinically significant diarrhea or colitis of any type was reported.

[H]/N=C(/NCCCCC)N/N=C/c1c[nH]c2ccc(OC)cc12 [T, tegaserod]
safety and tolerability profile [1]: favourable safety and tolerability profile | satisfactory relief of IBS symptoms over a 4-week treatment, odds ratio ([2]; IBS-C and IBS-M cohorts, T 6 mg bid vs placebo, 95% CI: 1.35, 2.25, p<0.001): 1.75 | percentage of patients experiencing satisfactory relief of IBS symptoms (75% rule) ([2]; IBS-C cohort, T 6 mg bid, 4 weeks, placebo 28.9%, p=0.008): 43.3% | days/week with no BMs (mean) ([2]; IBS-C cohort, T 6 mg bid, placebo 2.18): 2.31 days/week | Adverse event discontinuations ([2]; IBS-C cohort, T 6 mg bid, placebo 2.4%): 1.2% | stool consistency score using a 7-patient scale (mean) ([2]; IBS-C cohort, T 6 mg bid, placebo 2.89): 3.53 | days/wk with straining (mean) ([2]; IBS-C cohort, T 6 mg bid, placebo 3.55): 3.08 days/wk | weekly BM frequency (mean) ([2]; IBS-C cohort, T 6 mg bid, placebo 6.06): 6.88 | percentage of patients experiencing satisfactory relief of IBS symptoms (75% rule) ([2]; IBS-M cohort, T 6 mg bid, 4 weeks, placebo 36.3%, p=0.010): 52.3% | days/week with no BMs (mean) ([2]; IBS-M cohort, T 6 mg bid, placebo 1.68): 1.39 days/week | days/wk with straining (mean) ([2]; IBS-M cohort, T 6 mg bid, placebo 2.87): 2.42 days/wk | stool consistency score using a 7-patient scale (mean) ([2]; IBS-M cohort, T 6 mg bid, placebo 3.49): 3.95 | Adverse event discontinuations ([2]; IBS-M cohort, T 6 mg bid, placebo 3.6%): 2.5% | weekly BM frequency (mean) ([2]; IBS-M cohort, T 6 mg bid, placebo 8.34): 9.78 | treating the overall symptoms of IBS in patients with a mixed or alternating bowel habit (conclusion) ([2]; IBS-M, T 6 mg bid, 4 weeks): effective and safe | Most frequent AEs (with discontinuations): diarrhea ([2]; treatment group not stated): 1.1% | Most frequent AEs (with discontinuations): headache ([2]; treatment group not stated): 0.6% | Most frequent AEs (with discontinuations): nausea ([2]; treatment group not stated): 0.3%

Source: US20090176857A1, “Use of Organic Compounds” (priority 2005, published 2009)
